Data from US20200237909A1, “METHODS OF TREATING OR PREVENTING BREAST CANCER METASTASES USING ANTIBODIES TO JAGGED1 AND CHEMOTHERAPEUTIC AGENTS” (The Trustees of Princeton University, priority 2017, published 2020).

Tests used:
[1] = test system: Jagged1 expression; assay: Jagged1 mRNA expression in cell lines after chemotherapy agents; type: cell-based; conditions: 48 hr; for Jagged1 expression: MC3T3-E1 pre-osteoblast cells and MSCs, 25 nM paclitaxel or 10 μM cisplatin; for Jagged1 induction: endothelial cells, RAW 264.7 pre-osteoclasts, SCP28 and SUM1315-M1B1 tumor cells
Protocol: FIG. 5. Chemotherapy induces Jagged1 expression in osteoblast lineage cells. (A) Jagged1 mRNA expression in osteoblast MC3T3-E1-Clone #4 osteoblast cells and mesenchymal stem cells (MSC), HPMECL endothelial cells (endo), RAW264.7 pre-osteoclast cells, and SCP28 and SUM1315-M1B1 breast tumor cells 48 hr post-treatment with 25 nM paclitaxel or 10 μM cisplatin. (B) Athymic nude mice were i.v. injected with PBS or cisplatin and euthanized 48 hr later. Hind limb bones were collected for IF staining against Alp (green) and Jagged1 (red). Nuclei were counter-stained with DAPI (blue). (C-E) Athymic nude mice were treated with either PBS or cisplatin on Day 0. One day after the pre-treatment, MCF7 (C), SUM1315-M1B1 (D) or SCP28 (E) cells were delivered locally to the hind limbs of these mice by IIA injection. BLI imaging and quantification of BLI signal at Day 4. (F) Mice from experiment in E were euthanized after BLI imaging at Day 4. Hind limbs were fixed and processed for IF imaging of GFP-expressing tumor cells (green) and ALP positive osteoblasts (red). Size bar: 80 μm. In A: n=3. *p<0.05 by Student's t-test. In C-E: n=5. *p<0.05 by Student's t-test. #: statistically insignificant.
The possibility that chemotherapy agents may induce Jagged1 expression in either tumor cells or in the bone stromal cells was considered. […] Key stromal cell types in bone metastasis include osteoclasts, osteoblasts and their progenitors (such as mesenchymal stem cells (MSCs)), and endothelial cells. Whether Jagged1 could be induced in these cells and various breast cancer cell lines upon treatment of two different chemotherapy agents, paclitaxel and cisplatin, which are commonly used in the treatment of breast cancer, was tested.
Total RNAs were isolated from cells using RNeasy kit (Qiagen) following manufacturer's instructions. RNAs were reverse transcribed into cDNAs by using Superscript III reverse transcription kit (Invitrogen). Real-time RT-PCR was performed on ABI 7900 96 HT series PCR machine (Applied Biosystem) using SYBR Green Supermix (Bio-Rad Laboratories). The gene-specific primer sets were used at a final concentration of 0.5 μM. All real-time RT-PCR assays were performed in duplicate in at least two independent experiments. Relative expression values of each target gene were normalized to GAPDH mRNA level.

[2] = test system: MSCs; assay: Stress inducers/inhibitors: Jagged1 expression and ROS production in MSCs; type: cell-based, mouse
Source text: Next, which signaling pathway is responsible for Jagged1 induction after chemotherapy in osteoblast lineage cells was investigated. Chemotherapy generates many stress responses in cells, including endoplasmic reticulum stress (ER stress), and oxidative stress. Some of the stress conditions have been associated with the regulation of Jagged1 expression (Paul et al., 2014). Several treatments were used to mimic or inhibit these stress responses and then Jagged1 mRNA and protein levels were analyzed within the cells.
293T, H29-Clone #7, MC3T3-E1 Clone #4(denoted as MC3T3 for abbreviation thereafter), MCF7TR, mouse mesenchymal stromal cell (MSC, isolated from BALB/c), 4T1.2, SCP28, SCP28-Vector and -Jagged1 cells, SCP28, RAW264.7, and SUM1315-M1B1 cells were cultured according to American Type Culture Collection instructions and the inventors' previous studies (Ell et al., 2013; Ren et al., 2008; Sethi et al., 2011; Zheng et al., 2014). MSC cells were derived previously and were cultured in DMEM supplemented with 10% FBS, 30 ng/ml bFGF, 100 U/ml penicillin, and 100 μg/ml streptomycin (Ren et al., 2008). All plasmids were transfected into different cell lines using Lipofectamine 2000 following the manufacturer's manual (Life Technologies, CA, USA). To generate stable cell lines, a pLEX-MCS based lentivirus vector or a pMSCV-hygro based retrovirus vector was used in our study. Lentiviruses were packaged in HEK293T cells while retroviruses were packaged by using H29 cell line. Conditional media from these packaging cells containing viruses were collected 2 days and 3 days after transfection. Recipient cell lines were exposed to conditional media containing viruses supplemented with 2 μg/mL Polybrene for 48 h. Infected cells were selected with puromycin or hygromycin to generate stable expressing cell lines. 293T and H29clone #7 are cell lines from female humans. All other cancer cell lines are breast cancer cell lines from either female human or mouse.

[3] = test system: SCP28 cells; assay: Parental SCP28 bone metastasis, late treatment with 15D11 and paclitaxel; type: in vivo, mice; conditions: low endogenous Jagged1
Source text: FIG. 4. Synergistic inhibition of bone metastasis by SCP28 with combined treatment of 15D11 and chemotherapy. (A) Schematic illustration of the experimental procedure. (B) Quantification of bone metastasis burden based on BLI imaging. n=10. *p<0.05 and **p<0.01 by Mann-Whitney test. (C) Representative BLI images and X-ray images at week 6. (D) Representative H&E and TRAP staining images from the experiment. (E) Quantification of osteolytic lesions based on X-ray images. n=10. **p<0.01 by Student's t-test. (F) Quantification of TRAP+ osteoclasts from decalcified histological bone sections of hind limbs from mice, n=10. **p<0.01 by Student's t-test. Size bar: 100 μm for H&E and 50 μm for TRAP.
The strong inhibitory effect of the combined treatment on bone metastasis could potentially be explained by the combined effect of blocking Jagged1-dependent stromal engagement by 15D11 and cytotoxicity of paclitaxel to tumor cells. […]
Mice were purchased from Jackson laboratory. […] Spontaneous bone metastasis was monitored by X-ray imaging. […] Bone metastasis burden was monitored by weekly BLI and X-ray imaging. At the experimental endpoint, mice were euthanized for bone histology analysis and half of the bone samples were used for μCT imaging and bone density quantification.

SMILES	Jagged1 expression [1]	Jagged1 induction [1]	ROS production in MSCs [2]	bone metastasis burden [3]
N.N.[Cl][Pt][Cl] [cisplatin]	significantly increased	no significant induction	induced ROS production	–
CC(=O)O[C@H]1C(=O)[C@@]2(C)[C@H]([C@H](OC(=O)c3ccccc3)[C@]3(O)C[C@H](OC(=O)[C@H](O)[C@@H](NC(=O)c4ccccc4)c4ccccc4)C(C)=C1C3(C)C)[C@]1(OC(C)=O)CO[C@@H]1C[C@@H]2O [paclitaxel]	significantly increased	no significant induction	–	only slightly reduced metastatic burden
